Entries after “also recorded” stand apart in the source; their conditions may differ. Where two headings read alike, the source gives them in different places.
What was measured:
[1] = test system: CB2-positive mouse spleen tissue; test: In vitro autoradiography on mouse spleen tissue sections; assay type: binding, CD1 mouse; details: 5 nM radiotracer; baseline vs blockade with 10 μM GW405833; n = 2
Description: (§1) Autoradiography was performed on rat/mouse spleen tissue. Sections were prepared in 20 μm thickness using a cryostat (Cryo-Star NX 50; Thermo Scientific). The tissue slices were adsorbed to SuperFrost Plus (Menzel) slides and stored at −20°C until use. After thawing on ice for 10 min, sections were pre-incubated in the assay buffer containing 50 mM TRIS, 5 mM MgCl2, 2.5 mM EDTA, and 0.5% BSA (pH 7.4). […] In order to test for specificity toward CB2, a solution containing both radiotracer and an excess of CB2 specific partial agonist GW405833 (10 μM) was prepared and added to the tissue. The tissue slices were washed twice with assay buffer (each 2 min) and twice with distilled water (each 5 s) on ice, air dried, and exposed to a phosphor imager plate for a period of 25 min. The plate was scanned using a BAS5000 reader (Fujifilm, Dielsdorf, CH).

[2] = test system: CB2-positive rat spleen tissue; test: In vitro autoradiography on rat spleen tissue sections; assay type: binding, Wistar rat; details: 5 nM radiotracer; baseline vs blockade with 10 μM GW405833; n = 2
Description: as §1

[3] = test system: CB2-positive spleen; test: In vivo PET/CT of the spleen region after tail-vein injection; set-up: species or system Wistar rat
Description: Under baseline conditions, radiotracer accumulation was recorded in the region of the spleen in dynamic PET acquisition mode over 60 min (n = 2). During this whole time period rats were kept under anesthesia, body temperature and respiratory rate were constantly monitored. Under blockade conditions, 1.5 mg/kg GW405833 was injected shortly before radiotracer application in two of the four rats. Acquired PET data were reconstructed as user-defined time frames with a voxel size of 0.3875 × 0.3875 × 0.775 mm. For anatomical orientation, CT scans were acquired after each PET scan. Images were evaluated with PMOD v3.4 (PMOD Technologies Inc., Zurich, CH) software. Regions of interest (spleen, liver, and muscle) were drawn manually using the PMOD fusion tool. Time activity curves (TACs) for spleen, liver and muscle were expressed as standardized uptake values (SUV) which are the decay-corrected radioactivity per cm^3 divided by the injected radioactivity dose per gram of body weight.

[4] = molecular target: T1, hCB2 (Homo sapiens, UniProt P34972); set-up: method as in earlier work; details: known ligands, entry 1–3; ref Showalter et al., 1996; Lan et al., 1999; Valenzano et al., 2005; cited from earlier work
T1 construct: purchased PerkinElmer; host or cells: CHO-K1 cells stably transfected

[5] = molecular target: T2, hCB1 (Homo sapiens, UniProt P21554); set-up: method as in earlier work; details: known ligands, entry 1–3; ref Showalter et al., 1996; Lan et al., 1999; Valenzano et al., 2005; cited from earlier work
T2 construct: purchased PerkinElmer; host or cells: CHO-K1 cells stably transfected

[6] = molecular target: T1, hCB2; test: Competitive in vitro binding assay with [3H]CP-55,940, membranes of CHO-K1 cells stably transfected with hCB2; details: displacement of [3H]CP-55,940 (1.4 nM), 30°C, 90 min; three independent experiments in triplicate; Cheng-Prusoff
Description: (§2) A dilution series ranging from 1 pM to 1 mM in assay buffer (50 mM TRIS, 1 mM EDTA, 3 mM MgCl2 and 0.05% bovine serum albumin, pH adjusted to 7.4) was prepared for each ligand to be tested. […] The samples were incubated at 30°C for 90 min and subsequently diluted with ice cold assay buffer (3 mL) in order to be vacuum-filtered through Whatman GF/C filters (pre-treated with aq. polyethylenimine, 0.05%). Each sample was washed twice with ice cold assay buffer (3 mL) and filtered again. After addition of scintillation cocktail (Ultima Gold, Perkin Elmer), radioactivity was measured using a Beckman LS 6500 Liquid Scintillation Counter. IC50 mean values were calculated after performing three independent experiments, each as triplicate.
(§3) Binding affinity studies were performed using membranes stably transfected with human CB1 and CB2, respectively.

[7] = molecular target: T2, hCB1; test: Competitive in vitro binding assay with [3H]CP-55,940, membranes of CHO-K1 cells stably transfected with hCB1; details: displacement of [3H]CP-55,940 (1.4 nM), 30°C, 90 min; three independent experiments in triplicate; Cheng-Prusoff
Description: as §2, §3

T1 sequence (P34972 whole entry): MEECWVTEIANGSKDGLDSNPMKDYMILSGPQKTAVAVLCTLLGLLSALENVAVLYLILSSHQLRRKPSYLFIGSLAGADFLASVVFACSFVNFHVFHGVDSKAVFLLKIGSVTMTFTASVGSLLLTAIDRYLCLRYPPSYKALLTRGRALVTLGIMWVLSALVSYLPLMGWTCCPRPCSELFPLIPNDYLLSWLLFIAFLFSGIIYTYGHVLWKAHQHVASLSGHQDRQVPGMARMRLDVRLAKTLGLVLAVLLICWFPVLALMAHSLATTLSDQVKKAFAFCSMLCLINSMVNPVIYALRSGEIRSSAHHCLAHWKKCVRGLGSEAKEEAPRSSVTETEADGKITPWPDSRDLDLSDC
T2 sequence (P21554 whole entry): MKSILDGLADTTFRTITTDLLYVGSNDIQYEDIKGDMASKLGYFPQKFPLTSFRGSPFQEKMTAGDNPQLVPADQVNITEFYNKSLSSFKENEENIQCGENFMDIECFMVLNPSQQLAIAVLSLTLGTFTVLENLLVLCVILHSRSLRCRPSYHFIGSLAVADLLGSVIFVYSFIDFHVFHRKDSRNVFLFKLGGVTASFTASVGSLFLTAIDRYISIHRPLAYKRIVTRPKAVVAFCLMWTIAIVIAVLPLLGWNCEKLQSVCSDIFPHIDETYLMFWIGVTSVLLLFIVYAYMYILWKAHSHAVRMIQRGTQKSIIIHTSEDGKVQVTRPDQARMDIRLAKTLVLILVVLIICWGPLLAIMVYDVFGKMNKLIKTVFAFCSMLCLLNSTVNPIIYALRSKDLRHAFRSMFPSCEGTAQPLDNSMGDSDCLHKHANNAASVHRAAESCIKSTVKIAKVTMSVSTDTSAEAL

[11CH3]OC(=O)c1c(NC(=O)C23CC4CC(CC(O)(C4)C2)C3)sc2c1CCCC2 [[^11C]AAT-015]
specificity of binding to mouse spleen tissue (autoradiography) [1]: high unspecific binding
specificity of binding to rat spleen tissue (autoradiography) [2]: high unspecific binding
spleen uptake of radiotracer (PET) ([3]; baseline, 10–15 MBq i.v., 0–60 min post injection): no accumulation; also recorded: low uptake
spleen uptake, TACs baseline vs blockade (PET) ([3]; blockade with 1.5 mg/kg GW405833 shortly before tracer, 60 min): no difference

CCCc1c(C)sc(NC(=O)C23CC4CC(CC(C4)C2)C3)c1C(=O)O[11CH3] [[^11C]AAT-778]
specificity of binding to mouse spleen tissue (autoradiography) [1]: No blocking effect; also recorded: high unspecific binding
specificity of binding to rat spleen tissue (autoradiography) [2]: No blocking effect; also recorded: high unspecific binding

COc1ccc2c(c1)c(CCN1CCOCC1)c(C)n2C(=O)c1cccc(Cl)c1Cl [GW405833]
Ki [4]: 3.9 ± 1.6 nM
Ki [5]: 4.77 ± 1.68 µM

CCCc1c(C)sc(NC(=O)C23CC4CC(CC(C4)C2)C3)c1C(=O)OC [AAT-778, Methyl 2-(adamantane-1-carboxamido)-5-methyl-4-propylthiophene-3-carboxylate]
Ki [6]: 4.3 ± 0.7 nM
Ki [7]: 1100 ± 100 nM
